The results in this text go back to patent publication US9346815B2, “5-chloro-2-difluoromethoxyphenyl pyrazolopyrimidine compounds, compositions and methods of use thereof” (Genentech, Inc., priority 2014, dated 2016).

pEC50, pKi: −log10 of the molar value.

The target of assay [1] is isolated recombinant JAK1 kinase domain (Homo sapiens (Human), UniProt P23458). The assay can be described thus: JAK1 enzyme assay (Caliper LabChip, peptide phosphorylation). Format: biochemical. Conditions: isolated recombinant JAK1 kinase domain, 25 μM ATP.
The subject of assay [2] is JAK1-dependent STAT6 phosphorylation downstream of IL-13 stimulation in TF-1 human erythroleukemia cells. The assay can be described thus: JAK1 pathway assay in TF-1 cells (IL-13-pSTAT6, MSD). Format: cell-based. As to conditions: Homo sapiens, TF-1, TF-1 cells, read-out: IL13-pSTAT6 EC50_TF-1. The protocol: JAK1 Pathway Assay in Cell Lines was Carried Out as Follows:
Inhibitor potency (EC50) was determined in cell-based assays designed to measure JAK1 dependent STAT phosphorylation.
In one assay approach, TF-1 human erythroleukemia cells obtained from the American Type Culture Collection (ATCC; Manassas, Va.) were used to measure JAK1-dependent STAT6 phosphorylation downstream of IL-13 stimulation. Prior to use in the assays, TF-1 cells were starved of GM-CSF overnight in OptiMEM medium (Life Technologies, Grand Island, N.Y.) supplemented with 0.5% charcoal/dextran stripped fetal bovine serum (FBS), 0.1 mM non-essential amino acids (NEAA), and 1 mM sodium pyruvate. The assays were run in 384-well plates in serum-free OptiMEM medium using 300,000 cells per well. In a second assay approach, BEAS-2B human bronchial epithelial cells obtained from ATCC were plated at 100,000 cells per well of a 96-well plate one day prior to the experiment. The BEAS-2B assay was run in complete growth medium (bronchial epithelial basal medium plus bulletkit; Lonza; Basel, Switzerland).
Test compounds were serially diluted 1:2 in DMSO and then diluted 1:50 in medium just before use. Diluted compounds were added to the cells, for a final DMSO concentration of 0.2%, and incubated for 30 min (for the TF-1 assay) or 1 hr (for the BEAS-2B assay) at 37° C. Then, cells were stimulated with human recombinant cytokine at their respective EC90 concentrations, as previously determined for each individual lot. Cells were stimulated with IL-13 (R&D Systems, Minneapolis, Minn.) for 15 min at 37° C. The TF-1 cell reactions were stopped by the direct addition of 10× lysis buffer (Cell Signaling Technologies, Danvers, Mass.), whereas the BEAS-2B cell incubations were halted by the removal of medium and addition of 1× lysis buffer. The resultant samples were frozen in the plates at −80° C. Compound mediated inhibition of STAT6 phosphorylation was measured in the cell lysates using MesoScale Discovery (MSD) technology (Gaithersburg, Md.).

Assay [3] has as its target isolated recombinant JAK2 kinase domain (Homo sapiens (Human), UniProt O60674). In words: JAK2 enzyme assay (Caliper LabChip, peptide phosphorylation). Format: biochemical. As to conditions: 25 μM ATP.

Sequence of isolated recombinant JAK2 kinase domain (O60674 849-1124): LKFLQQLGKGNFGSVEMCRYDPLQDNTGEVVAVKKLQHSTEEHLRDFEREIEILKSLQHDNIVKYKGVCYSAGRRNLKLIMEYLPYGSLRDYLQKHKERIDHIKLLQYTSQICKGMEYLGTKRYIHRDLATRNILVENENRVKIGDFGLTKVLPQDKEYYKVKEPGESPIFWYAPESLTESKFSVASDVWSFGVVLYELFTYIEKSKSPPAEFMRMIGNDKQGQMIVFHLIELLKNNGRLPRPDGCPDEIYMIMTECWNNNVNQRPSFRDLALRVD
Sequence of isolated recombinant JAK1 kinase domain (P23458 875-1153): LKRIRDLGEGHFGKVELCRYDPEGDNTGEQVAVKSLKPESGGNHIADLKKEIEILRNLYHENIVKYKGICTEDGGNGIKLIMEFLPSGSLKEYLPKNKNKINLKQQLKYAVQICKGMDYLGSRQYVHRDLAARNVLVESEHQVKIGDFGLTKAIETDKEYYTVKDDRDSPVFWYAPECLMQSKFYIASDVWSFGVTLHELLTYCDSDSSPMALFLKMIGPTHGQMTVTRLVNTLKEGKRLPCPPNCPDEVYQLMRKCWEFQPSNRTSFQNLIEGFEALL

As for `CN1CCC2CN(C(=O)Cn3cc(NC(=O)c4c(N)nn5cccnc45)c(-c4cc(Cl)ccc4OC(F)F)n3)CCC21` (stereo not shown) [Example 56, 2-amino-N-[3-[5-chloro-2-(difluoromethoxy)phenyl]-1-[2-(1-methyl-3,3a,4,6,7,7a-hexahydro-2H-pyrrolo[3,2-c]pyridin-5-yl)-2-oxo-ethyl]pyrazol-4-yl]pyrazolo[1,5-a]pyrimidine-3-carboxamide], the pKi (in general, the negative decadic logarithm of the Ki, by convention in mol/L) in assay [1] is 9.13. Besides, the pEC50 in assay [2] is 8.16.
For the molecule `NC[C@@H]1CCCN1C(=O)Cn1cc(NC(=O)c2cnn3cccnc23)c(-c2cc(Cl)ccc2OC(F)F)n1` [Example 81, N-[1-[2-[(2S)-2-(aminomethyl)pyrrolidin-1-yl]-2-oxo-ethyl]-3-[5-chloro-2-(difluoromethoxy)phenyl]pyrazol-4-yl]pyrazolo[1,5-a]pyrimidine-3-carboxamide], the pKi in assay [1] was 8.27. The pEC50 in assay [2] is 6.60.
With `O=C(Nc1cn(CC(=O)N2CCC(NCCc3ccc(C(F)(F)F)cc3)CC2)nc1-c1cc(Cl)ccc1OC(F)F)c1cnn2cccnc12` [Example 93, N-[3-[5-chloro-2-(difluoromethoxy)phenyl]-1-[2-oxo-2-[4-[2-[4-(trifluoromethyl)phenyl]ethylamino]-1-piperidyl]ethyl]pyrazol-4-yl]pyrazolo[1,5-a]pyrimidine-3-carboxamide], the pKi in assay [1] was 8.89. Moreover, the pEC50 in assay [2] was 7.02.
Consider `Nc1nn2cccnc2c1C(=O)Nc1cn(C2CCN(CCCC(=O)N3CCOCC3)CC2)nc1-c1cc(Cl)ccc1OC(F)F` [Example 147, 2-amino-N-[3-[5-chloro-2-(difluoromethoxy)phenyl]-1-[1-(4-morpholino-4-oxo-butyl)-4-piperidyl]pyrazol-4-yl]pyrazolo[1,5-a]pyrimidine-3-carboxamide], for which the pKi in assay [1] is 9.26. Besides, the pEC50 in assay [2] is 7.93.
For the molecule `CN1CCC(n2cc(NC(=O)c3c(N)nn4cccnc34)c(-c3cc(Cl)ccc3OC(F)F)n2)CC1` [Example 184, 2-amino-N-[3-[5-chloro-2-(difluoromethoxy)phenyl]-1-(1-methyl-4-piperidyl)pyrazol-4-yl]pyrazolo[1,5-a]pyrimidine-3-carboxamide], the pEC50 in assay [2] was 8.46.
Take `CN(C)C1CCN(C(=O)C2CCN(c3nc(-c4cc(Cl)ccc4OC(F)F)c(NC(=O)c4cnn5cccnc45)s3)CC2)CC1` [Example 197, N-[4-[5-chloro-2-(difluoromethoxy)phenyl]-2-[4-[4-(dimethylamino)piperidine-1-carbonyl]-1-piperidyl]thiazol-5-yl]pyrazolo[1,5-a]pyrimidine-3-carboxamide]: the pEC50 in assay [2] is 8.21.
Consider `CN1CC2(CCN(C(=O)Cn3cc(NC(=O)c4cnn5cccnc45)c(-c4cc(Cl)ccc4OC(F)F)n3)CC2)C1` [Example 218, N-[3-[5-chloro-2-(difluoromethoxy)phenyl]-1-[2-(2-methyl-2,7-diazaspiro[3.5]nonan-7-yl)-2-oxo-ethyl]pyrazol-4-yl]pyrazolo[1,5-a]pyrimidine-3-carboxamide], for which the pKi in assay [1] is 9.00. In addition, in assay [2], the pEC50 was 7.12.
Turning to `CN1CC2(CCN(C(=O)Cn3cc(NC(=O)c4cnn5cccnc45)c(-c4cc(Cl)ccc4OC(F)F)n3)C2)C1` [Example 221, N-[3-[5-chloro-2-(difluoromethoxy)phenyl]-1-[2-(2-methyl-2,6-diazaspiro[3.4]octan-6-yl)-2-oxo-ethyl]pyrazol-4-yl]pyrazolo[1,5-a]pyrimidine-3-carboxamide], the pKi in assay [1] is 9.04. Also, the pEC50 in assay [2] is 6.88.
In the case of `CN1C[C@H]2C[C@@H]1CN2C(=O)Cn1cc(NC(=O)c2c(N)nn3cccnc23)c(-c2cc(Cl)ccc2OC(F)F)n1` [Example 252, 2-amino-N-[3-[5-chloro-2-(difluoromethoxy)phenyl]-1-[2-[(1R,4R)-5-methyl-2,5-diazabicyclo[2.2.1]heptan-2-yl]-2-oxo-ethyl]pyrazol-4-yl]pyrazolo[1,5-a]pyrimidine-3-carboxamide], in assay [2], the pEC50 was 7.37.
In the case of `O=C(Nc1cn(CC(=O)N2CCC(O)(c3ccncc3)CC2)nc1-c1cc(Cl)ccc1OC(F)F)c1cnn2cccnc12` [Example 276, N-[3-[5-chloro-2-(difluoromethoxy)phenyl]-1-[2-[4-hydroxy-4-(4-pyridyl)-1-piperidyl]-2-oxo-ethyl]pyrazol-4-yl]pyrazolo[1,5-a]pyrimidine-3-carboxamide], the negative-log Ki (pKi) was 9.64 in assay [1] and 9.74 in assay [3].
`O=C(Nc1cn(CC(=O)N2CCOC(CO)C2)nc1-c1cc(Cl)ccc1OC(F)F)c1cnn2cccnc12` (stereo not shown) [Example 277, N-[3-[5-chloro-2-(difluoromethoxy)phenyl]-1-[2-[2-(hydroxy-methyl)morpholin-4-yl]-2-oxo-ethyl]pyrazol-4-yl]pyrazolo[1,5-a]pyrimidine-3-carboxamide]: the figures for the pKi in assay [1] and in assay [3] were 9.29 and 9.08, respectively.
In the same order, the values of `Nc1nn2cccnc2c1C(=O)Nc1cn(CC(=O)N2CCC(O)(Cc3ccccc3)CC2)nc1-c1cc(Cl)ccc1OC(F)F` [Example 279, 2-amino-N-[1-[2-(4-benzyl-4-hydroxy-1-piperidyl)-2-oxo-ethyl]-3-[5-chloro-2-(difluoromethoxy)phenyl]pyrazol-4-yl]pyrazolo[1,5-a]pyrimidine-3-carboxamide] are 9.41 and 9.66.
In the same order, the values of `Nc1nn2cccnc2c1C(=O)Nc1cn(CC(=O)N2CCC(F)(F)C2)nc1-c1cc(Cl)ccc1OC(F)F` [Example 282, 2-amino-N-[3-[5-chloro-2-(difluoromethoxy)phenyl]-1-[2-(3,3-difluoropyrrolidin-1-yl)-2-oxo-ethyl]pyrazol-4-yl]pyrazolo[1,5-a]pyrimidine-3-carboxamide] are 9.77 and 9.92.
The like results for `N#CC1(c2ccccc2)CCN(C(=O)Cn2cc(NC(=O)c3c(N)nn4cccnc34)c(-c3cc(Cl)ccc3OC(F)F)n2)CC1` [Example 283, 2-amino-N-[3-[5-chloro-2-(difluoromethoxy)phenyl]-1-[2-(4-cyano-4-phenyl-1-piperidyl)-2-oxo-ethyl]pyrazol-4-yl]pyrazolo[1,5-a]pyrimidine-3-carboxamide] were, in that order, 9.26 and 9.54.
As to `Nc1nn2cccnc2c1C(=O)Nc1cn(CC(=O)N2CCC(Oc3ccccc3)CC2)nc1-c1cc(Cl)ccc1OC(F)F` [Example 285, 2-amino-N-[3-[5-chloro-2-(difluoromethoxy)phenyl]-1-[2-oxo-2-(4-phenoxy-1-piperidyl)ethyl]pyrazol-4-yl]pyrazolo[1,5-a]pyrimidine-3-carboxamide], the pKi in assay [1] is 9.21; in assay [3] it was 9.33.
For the molecule `Nc1nn2cccnc2c1C(=O)Nc1cn(CC(=O)N2CCC(O)(c3ccccc3)CC2)nc1-c1cc(Cl)ccc1OC(F)F` [Example 286, 2-amino-N-[3-[5-chloro-2-(difluoromethoxy)phenyl]-1-[2-(4-hydroxy-4-phenyl-1-piperidyl)-2-oxo-ethyl]pyrazol-4-yl]pyrazolo[1,5-a]pyrimidine-3-carboxamide], the pKi is 9.27 in assay [1] and 9.59 in assay [3].
As for `O=C(Nc1cn(CC(=O)N2CCC(F)(F)C2)nc1-c1cc(Cl)ccc1OC(F)F)c1cnn2cccnc12` [Example 287, N-[3-[5-chloro-2-(difluoromethoxy)phenyl]-1-[2-(3,3-difluoropyrrolidin-1-yl)-2-oxo-ethyl]pyrazol-4-yl]pyrazolo[1,5-a]pyrimidine-3-carboxamide], the figures for the pKi in assay [1] and in assay [3] were 9.46 and 9.19, respectively.
With `O=C(Nc1cn(CC(=O)N2CCC(O)(c3ccccc3)CC2)nc1-c1cc(Cl)ccc1OC(F)F)c1cnn2cccnc12` [Example 289, N-[3-[5-chloro-2-(difluoromethoxy)phenyl]-1-[2-(4-hydroxy-4-phenyl-1-piperidyl)-2-oxo-ethyl]pyrazol-4-yl]pyrazolo[1,5-a]pyrimidine-3-carboxamide], the pKi in assay [1] is 9.52; in assay [3] it was 9.42.
For the molecule `Nc1nn2cccnc2c1C(=O)Nc1cn(CC(=O)N2CCOCC2)nc1-c1cc(Cl)ccc1OC(F)F` [Example 290, 2-amino-N-[3-[5-chloro-2-(difluoromethoxy)phenyl]-1-(2-morpholino-2-oxo-ethyl)pyrazol-4-yl]pyrazolo[1,5-a]pyrimidine-3-carboxamide], the pKi in assay [1] was 9.62; in assay [3], 9.96.
In the same order, the values of `CCOC(=O)CN(CCn1cc(NC(=O)c2cnn3cccnc23)c(-c2cc(Cl)ccc2OC(F)F)n1)Cc1cccnc1` [Example 362, ethyl 2-[(2-[3-[5-chloro-2-(difluoromethoxy)phenyl]-4-[pyrazolo[1,5-a]pyrimidine-3-amido]-1H-pyrazol-1-yl]ethyl)(pyridin-3-ylmethyl)amino]acetate] are 8.30 and 8.49.
